The subject of data set [1] is replicon cells.
The subject of data set [2] is replicon cells (1b-Con1). Kind of data set: Replicon activity assay (1b-Con1 replicon cells, real-time RT-PCR). In kind it is cell-based, HCV. To be noted: Hepatitis C virus, 72 h, read-out: Replicon (1b) EC50. For orientation: In antiviral work, replicon cells carry a viral genome segment that copies itself.
Data set [3] has as its system replicon cells. Kind of data set: Cytotoxicity in replicon cells (MTS assay, CellTiter 96). Conditions: CC50, MTS assay, three days post dosing.
In data set [4] the target is HCV NS5B RNA-dependent RNA polymerase (1b-BKΔ55) (Hepatitis C virus genotype 1b, UniProt P26663). Kind of data set: biochemical.
Sequence of HCV NS5B RNA-dependent RNA polymerase (1b-BKΔ55) (P26663 2420-2955 limits assumed, stated change not applied): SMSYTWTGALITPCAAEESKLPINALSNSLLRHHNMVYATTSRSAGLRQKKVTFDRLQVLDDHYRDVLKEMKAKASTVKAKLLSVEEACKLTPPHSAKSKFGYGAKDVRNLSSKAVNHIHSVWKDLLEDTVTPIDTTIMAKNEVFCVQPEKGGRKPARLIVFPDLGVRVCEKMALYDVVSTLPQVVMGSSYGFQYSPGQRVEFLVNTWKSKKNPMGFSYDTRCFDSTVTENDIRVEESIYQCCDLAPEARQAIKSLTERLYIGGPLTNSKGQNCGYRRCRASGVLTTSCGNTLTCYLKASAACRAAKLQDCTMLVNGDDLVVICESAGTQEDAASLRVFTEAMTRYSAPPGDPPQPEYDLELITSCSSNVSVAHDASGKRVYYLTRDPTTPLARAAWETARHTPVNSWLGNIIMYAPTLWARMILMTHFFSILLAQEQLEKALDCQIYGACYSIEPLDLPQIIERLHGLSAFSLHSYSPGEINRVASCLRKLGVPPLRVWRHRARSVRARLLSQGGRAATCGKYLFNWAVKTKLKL
For data set [5], the system named is HCV replicon cells. Briefly: Cell-based HCV replicon assay (replicon RNA by Taqman real time PCR). To be noted: read-out: 1b EC50.

Molecules are shown by their SMILES. Where two headings read alike, the source gives them in different places. Where only a bound is given, the exact number is not on record here.

A word on the EC50: it is the concentration at which the effect is half-maximal. What is called IC50 is the point on the concentration scale where inhibition reaches its midpoint. Higher therefore signals weaker potency.

Turning to `CCOC(=O)[C@H](C)NP(=O)(OC[C@H]1O[C@@H](n2cnc3c(OC)nc(N)nc32)[C@](C)(N=[N+]=[N-])[C@@H]1O)Oc1ccccc1` (some centres unmarked) [drawing 880], the Cytotoxicity in data set [1] is greater than 100 µM. Besides, the EC50 in data set [2] came to 400 nM.

Consider `COC(=O)[C@H](C)NP(=O)(OC[C@H]1O[C@@H](n2ccc(N)nc2=O)[C@](C)(N=[N+]=[N-])[C@@H]1O)Oc1ccc(Cl)c(Cl)c1` (some centres unmarked), for which the Cytotoxicity in data set [1] was greater than 100 µM. In addition, the EC50 in data set [2] was 35000 nM.

In data set [1], `CCOC(=O)[C@H](C)NP(=O)(OC[C@H]1O[C@@H](n2cnc3c(OCC)nc(N)nc32)[C@](C)(N=[N+]=[N-])[C@@H]1O)Oc1ccccc1` (some centres unmarked) [drawing 881] returned a Cytotoxicity greater than 100 µM. Also, the EC50 in data set [2] is 1000 nM.

`CCOc1nc(N)nc2c1ncn2[C@@H]1O[C@H](COP(=O)(N[C@@H](C)C(=O)OC)Oc2ccc(Cl)cc2)[C@@H](O)[C@@]1(C)N=[N+]=[N-]` (some centres unmarked) [drawing 887] yielded a Cytotoxicity in data set [1] of 25 µM. Also, the EC50 in data set [2] was found to be 900 nM.

In turn, `CC(C)OC(=O)[C@H](C)NP(=O)(OC[C@H]1O[C@@H](n2ccc(N)nc2=O)[C@](C)(N=[N+]=[N-])[C@@H]1O)Oc1ccccc1Cl` (some centres unmarked) [drawing 885] gave a Cytotoxicity in data set [1] greater than 100 µM. The EC50 in data set [2] amounted to 1300 nM.

As to `CC(C)COC(=O)[C@H](C)NP(=O)(OC[C@H]1O[C@@H](n2ccc(=O)[nH]c2=O)[C@](C)(N=[N+]=[N-])[C@@H]1O)Oc1ccccc1` (some centres unmarked) [drawing 892], the Cytotoxicity in data set [1] is 55 µM. In addition, the EC50 in data set [2] worked out at 800 nM.

Compound `CCOC(=O)c1ccccc1OP(=O)(N[C@@H](C)C(=O)OC)OC[C@H]1O[C@@H](n2ccc(=O)[nH]c2=O)[C@](C)(N=[N+]=[N-])[C@@H]1O` (some centres unmarked) showed a Cytotoxicity in data set [1] greater than 100 µM. In addition, in data set [2], the 50% effective concentration (EC50) was determined as 2800 nM.

In data set [3], `COc1nc(N)nc2c1ncn2C1O[C@@H]2COP(=O)(OC(C)C)O[C@H]2[C@@]1(C)N=[N+]=[N-]` (some centres unmarked) returned a Cytotoxicity greater than 100 µM. The concentration giving a half-maximal response (EC50) in data set [2] (1b-Con1 replicon cells, three days post-dosing) is 8300 nM.

As to `CC(C)OC(=O)[C@H](C)NP(=O)(OC[C@H]1O[C@@H](n2ccc(=O)[nH]c2=O)[C@](C)(N=[N+]=[N-])[C@@H]1O)Oc1ccc(Cl)c(Cl)c1` (some centres unmarked) [drawing 890], the Cytotoxicity in data set [1] was determined as 42 µM. In data set [2], the EC50 is 7600 nM.

Take `C[C@@]1(N=[N+]=[N-])[C@H](O)[C@@H](COP(=O)(O)OP(=O)(O)OP(=O)(O)O)O[C@H]1n1ccc(=O)[nH]c1=O` [Compound 74]: the IC50 in data set [4] is 55000 nM.

In the case of `CCCC(CCC)COC(=O)[C@H](C)NP(=O)(OC[C@H]1O[C@@H](n2ccc(=O)[nH]c2=O)[C@](C)(N=[N+]=[N-])[C@@H]1O)Oc1ccccc1` (some centres unmarked) [drawing 886], in data set [1], the Cytotoxicity amounted to 83 µM. In data set [2], the EC50 worked out at 2100 nM.

With `CCOC(=O)[C@H](C)NP(=O)(OC[C@H]1O[C@@H](n2cnc3c(N4CCC4)nc(N)nc32)[C@](C)(N=[N+]=[N-])[C@@H]1O)Oc1ccccc1` (some centres unmarked) [drawing 882], the Cytotoxicity in data set [1] is greater than 100 µM. For the same compound, the EC50 in data set [2] was determined as 1500 nM.

In the case of `C[C@@]1(N=[N+]=[N-])[C@H](O)C(COP(=O)(O)OP(=O)(O)OP(=O)(O)O)O[C@H]1n1ccc(N)nc1=O` (some centres unmarked) [Compound 75], in data set [4], the IC50 is 10000 nM.

Consider `CCOC(=O)[C@H](C)NP(=O)(OC[C@H]1O[C@@H](n2cnc3c(OC)nc(N)nc32)[C@](C)(N=[N+]=[N-])C1O)Oc1ccc(Cl)cc1` (some centres unmarked), for which the Cytotoxicity in data set [1] is greater than 100 µM. Besides, in data set [2], the EC50 is 1200 nM.

In data set [1], `CC(C)OC(=O)[C@H](C)NP(=O)(OC[C@H]1O[C@@H](n2ccc(=O)[nH]c2=O)[C@](C)(N=[N+]=[N-])[C@@H]1O)Oc1ccccc1` (some centres unmarked) showed a Cytotoxicity greater than 100 µM. Further, the EC50 in data set [2] is 3100 nM.

With `COC(=O)[C@H](C)NP(=O)(OC[C@H]1O[C@@H](n2cnc3c(NC4CC4)nc(N)nc32)[C@](C)(N=[N+]=[N-])[C@@H]1O)Oc1ccccc1Cl` (some centres unmarked) [drawing 883], the Cytotoxicity in data set [1] was greater than 100 µM. Further, the EC50 in data set [2] is 1400 nM.

With `C[C@H](NP(=O)(OC[C@H]1O[C@@H](n2ccc(=O)[nH]c2=O)[C@](C)(N=[N+]=[N-])[C@@H]1O)Oc1ccc2c(c1)OCO2)C(=O)OCc1ccccc1` (some centres unmarked) [drawing 888], the EC50 in data set [2] is 1200 nM.

In turn, `C[C@@]1(N=[N+]=[N-])[C@H](O)C(COP(=O)(O)OP(=O)(O)OP(=O)(O)O)O[C@H]1n1cnc2c(=O)[nH]c(N)nc21` (some centres unmarked) [Compound 76] came in with an IC50 in data set [4] of 1700 nM.

`CCOc1nc(N)nc2c1ncn2[C@@H]1O[C@H](COP(=O)(N[C@@H](C)C(=O)OCC(C)C)Oc2ccccc2)[C@@H](O)[C@@]1(C)N=[N+]=[N-]` (some centres unmarked) [Compound 61]: the EC50 in data set [5] came out at 800 nM.

On to `CCOP1(=O)OC[C@H]2O[C@@H](n3ccc(=O)[nH]c3=O)[C@](C)(N=[N+]=[N-])[C@@H]2O1` (some centres unmarked) [Compound 567], for which, in data set [5] (Hepatitis C virus, 72 h), the EC50 was greater than 100000 nM.

Regarding `C[C@H](NP(=O)(OC[C@H]1O[C@@H](n2ccc(=O)[nH]c2=O)[C@](C)(N=[N+]=[N-])[C@@H]1O)Oc1cccc2ccccc12)C(=O)OCc1ccccc1` (some centres unmarked) [Compound 230], the EC50 in data set [5] (Hepatitis C virus, 72 h) was found to be 14000 nM.

On to `CCCCOC(=O)[C@H](C)NP(=O)(OC[C@H]1O[C@@H](n2ccc(=O)[nH]c2=O)[C@](C)(N=[N+]=[N-])[C@@H]1O)Oc1cccc2ccccc12` (single isomer, unassigned) [Compound 156], for which, in data set [5], the EC50 is 1500 nM.

For `CCOC(=O)c1ccccc1OP(=O)(N[C@@H](C)C(=O)OC)OC[C@H]1O[C@@H](n2cnc3c(OC)nc(N)nc32)[C@](C)(N=[N+]=[N-])[C@@H]1O` (some centres unmarked) [Compound 224], the 50% effective concentration (EC50) in data set [5] (Hepatitis C virus, 72 h) turned out to be 3300 nM.

In the case of `CCCOP1(=O)OC[C@H]2O[C@@H](n3ccc(=O)[nH]c3=O)[C@](C)(N=[N+]=[N-])[C@@H]2O1` (single isomer, unassigned) [Compound 566], in data set [5] (HCV replicon 1b, cells harvested on day 3), the EC50 is greater than 100000 nM.

The record behind these values is US9156872B2, “2′-azido substituted nucleoside derivatives and methods of use thereof for the treatment of viral diseases” (priority 2011, dated 2015).
